Values of other authors in patent publication US20050152989A1, “Method for treating irritable bowel syndrome” (Braintree Laboratories, Inc., priority 2003, published 2005).

Experiments:
[1] = tested on: constipation-predominant IBS; settings: Case Study 2, patient history before the formulation

For `Cc1[nH]cnc1CN1CCc2c(c3ccccc3n2C)C1=O` [alosetron], the toxicity limiting use (IBS; diarrhea-predominant IBS) is listed as “severely limited by its toxicity”.
In the case of `COc1cc(N)c(Cl)cc1C(=O)NC1CCN(CCCOc2ccc(F)cc2)CC1OC` (stereo not drawn) [cisapride], the “outcome of earlier treatment regimens tried by the patient” value [1] is given as “without success”.
In the case of `[H]/N=C(/NCCCCC)N/N=C/c1c[nH]c2ccc(OC)cc12` [tegaserod], the “patients with significant improvement in IBS symptoms compared with placebo” value (IBS; constipation-predominant IBS) is given as “about one of eight”.
